Laboratory results published in the NIST ThermoML archive (doi:10.1016/j.jct.2009.01.006).
Numbers after ± are expanded uncertainties.

Legend:
[1] = φn = volume fraction of the nth substance listed; settings: 303.15 K, 101 kPa, Liquid; for speed of sound: Linear variable-path acoustic interferometer
[2] = xn = mol fraction of the nth substance listed; settings: 303.15 K, 101 kPa, Liquid, Direct dilatometry
[3] = refractive index (Na D-line) (dimensionless); settings: 298.15 K; 101.33 kPa; Liquid; Standard Abbe refractometry
[4] = 303.15 K; for speed of sound: Linear variable-path acoustic interferometer

CN1CCCC1=O [N-methylpyrrolidone] + CCCC(C)=O
[1], φ1 = 1
Settings	mass density [kg/m3]	speed of sound [m/s]
–	1023.4 ± 5.3	1552 ± 2

CCC(C)=O [butanone] + CN1CCCC1=O
Settings	excess molar volume [m3/mol]	speed of sound [m/s]
[1], φ2 = 0	–	1167 ± 2
[1], φ2 = 0.1517	–	1214 ± 2
[1], φ2 = 0.2207	–	1245 ± 2
[1], φ2 = 0.2988	–	1282 ± 2
[1], φ2 = 0.426	–	1345 ± 2
[1], φ2 = 0.5205	–	1391 ± 2
[1], φ2 = 0.5952	–	1421 ± 2
[1], φ2 = 0.7078	–	1456 ± 2
[1], φ2 = 0.8167	–	1483 ± 2
[1], φ2 = 0.9184	–	1519 ± 2
[2], x2 = 0.0705	-7.1e-08 ± 6e-09	–
[2], x2 = 0.1436	-1.42e-07 ± 6e-09	–
[2], x2 = 0.2097	-1.89e-07 ± 6e-09	–
[2], x2 = 0.2854	-2.44e-07 ± 6e-09	–
[2], x2 = 0.4102	-2.93e-07 ± 6e-09	–
[2], x2 = 0.5043	-3.02e-07 ± 6e-09	–
[2], x2 = 0.5795	-2.96e-07 ± 6e-09	–
[2], x2 = 0.6942	-2.56e-07 ± 6e-09	–
[2], x2 = 0.8068	-1.89e-07 ± 6e-09	–
[2], x2 = 0.9134	-9.8e-08 ± 6e-09	–
[2], x2 = 0.9545	-5.1e-08 ± 7e-09	–

CN1CCCC1=O [N-methylpyrrolidone] + CCC(C)=O
Settings	speed of sound [m/s]
[1], φ1 = 1	1552 ± 2

CN1CCCC1=O [N-methylpyrrolidone] + O=C1CCCCC1
[1], φ1 = 1
Settings	mass density [kg/m3]	speed of sound [m/s]
–	1023.4 ± 5.3	1552 ± 2

CN1CCCC1=O [N-methylpyrrolidone] + CCC(=O)CC
[1], φ1 = 1
Settings	mass density [kg/m3]	speed of sound [m/s]
–	1023.4 ± 5.3	1552 ± 2

CCC(C)=O [butanone]
Settings	refractive index
[3]	1.377 ± 0.0008

[4], Liquid
Settings	mass density [kg/m3]	speed of sound [m/s]
101 kPa	794.51 ± 5.2	1167 ± 2
101.33 kPa	794.5 ± 5.2	1168 ± 2

CCC(=O)CC [pentan-3-one]
Settings	refractive index
[3]	1.3902 ± 0.0008

[4], Liquid
Settings	mass density [kg/m3]	speed of sound [m/s]
101 kPa	804.57 ± 5.2	1198 ± 2
101.33 kPa	804.62 ± 5.2	1201 ± 2

CC(=O)CC(C)C [4-methylpentan-2-one]
Settings	refractive index
[3]	1.3935 ± 0.0008

[4], Liquid
Settings	mass density [kg/m3]	speed of sound [m/s]
101 kPa	791.24 ± 5.2	1168 ± 2
101.33 kPa	791.25 ± 5.2	1172 ± 2

CC(=O)CC(C)C [4-methylpentan-2-one] + CN1CCCC1=O
Settings	excess molar volume [m3/mol]	mass density [kg/m3]	speed of sound [m/s]
[1], φ2 = 0	–	791.24 ± 5.2	1168 ± 2
[1], φ2 = 0.0946	–	814.41 ± 5.2	1198 ± 2
[1], φ2 = 0.1879	–	836.88 ± 5.2	1232 ± 2
[1], φ2 = 0.2615	–	854.5 ± 5.2	1259 ± 2
[1], φ2 = 0.3961	–	886.44 ± 5.2	1310 ± 2
[1], φ2 = 0.4444	–	897.82 ± 5.2	1332 ± 2
[1], φ2 = 0.6087	–	936.2 ± 5.2	1385 ± 2
[1], φ2 = 0.7236	–	962.58 ± 5.2	1422 ± 2
[1], φ2 = 0.8232	–	985.02 ± 5.2	1456 ± 2
[1], φ2 = 0.8989	–	1001.74 ± 5.3	1491 ± 2
[2], x2 = 0.0682	-1.09e-07 ± 7e-09	–	–
[2], x2 = 0.1202	-1.82e-07 ± 7e-09	–	–
[2], x2 = 0.2327	-2.88e-07 ± 7e-09	–	–
[2], x2 = 0.3164	-3.49e-07 ± 7e-09	–	–
[2], x2 = 0.3727	-3.78e-07 ± 6e-09	–	–
[2], x2 = 0.4616	-4.11e-07 ± 6e-09	–	–
[2], x2 = 0.5111	-4.22e-07 ± 6e-09	–	–
[2], x2 = 0.5711	-4.24e-07 ± 6e-09	–	–
[2], x2 = 0.6703	-4.15e-07 ± 6e-09	–	–
[2], x2 = 0.7739	-3.58e-07 ± 7e-09	–	–
[2], x2 = 0.8589	-2.73e-07 ± 7e-09	–	–
[2], x2 = 0.9208	-1.79e-07 ± 7e-09	–	–
[2], x2 = 0.9675	-9.3e-08 ± 7e-09	–	–

O=C1CCCCC1 [cyclohexanone]
Settings	refractive index
[3]	1.4501 ± 0.0007

[4], Liquid
Settings	mass density [kg/m3]	speed of sound [m/s]
101 kPa	937.58 ± 5.2	1386 ± 2
101.33 kPa	937.55 ± 5.2	1385 ± 2

CCC(=O)CC [pentan-3-one] + CN1CCCC1=O
Settings	excess molar volume [m3/mol]	mass density [kg/m3]	speed of sound [m/s]
[1], φ2 = 0	–	804.57 ± 5.2	1198 ± 2
[1], φ2 = 0.1401	–	837.52 ± 5.2	1230 ± 2
[1], φ2 = 0.2265	–	857.08 ± 5.2	1252 ± 2
[1], φ2 = 0.3711	–	889.22 ± 5.2	1297 ± 2
[1], φ2 = 0.423	–	900.7 ± 5.2	1316 ± 2
[1], φ2 = 0.5121	–	920.45 ± 5.2	1347 ± 2
[1], φ2 = 0.5666	–	932.49 ± 5.2	1365 ± 2
[1], φ2 = 0.6937	–	960.46 ± 5.2	1415 ± 2
[1], φ2 = 0.79	–	981.3 ± 5.2	1452 ± 2
[1], φ2 = 0.904	–	1004.83 ± 5.3	1502 ± 2
[2], x2 = 0.0634	-1.55e-07 ± 7e-09	–	–
[2], x2 = 0.1526	-2.89e-07 ± 7e-09	–	–
[2], x2 = 0.2446	-3.57e-07 ± 6e-09	–	–
[2], x2 = 0.3948	-3.98e-07 ± 6e-09	–	–
[2], x2 = 0.4476	-4.12e-07 ± 6e-09	–	–
[2], x2 = 0.5371	-4.2e-07 ± 6e-09	–	–
[2], x2 = 0.591	-4.22e-07 ± 6e-09	–	–
[2], x2 = 0.7146	-4.13e-07 ± 6e-09	–	–
[2], x2 = 0.7962	-3.45e-07 ± 7e-09	–	–
[2], x2 = 0.9124	-2.31e-07 ± 7e-09	–	–
[2], x2 = 0.9626	-1.06e-07 ± 7e-09	–	–

CN1CCCC1=O [N-methylpyrrolidone]
Settings	refractive index
[3]	1.4674 ± 0.0008

[4]
Settings	mass density, 101 kPa [kg/m3]	mass density, 101.33 kPa [kg/m3]	speed of sound, 101.33 kPa [m/s]
Crystal	–	1023.4 ± 5.3	–
Liquid	1023.4 ± 5.3	–	1552 ± 2

CCCC(C)=O [pentan-2-one]
Settings	refractive index
[3]	1.3883 ± 0.0008

[4], Liquid
Settings	mass density [kg/m3]	speed of sound [m/s]
101 kPa	796.54 ± 5.2	1202 ± 2
101.33 kPa	796.58 ± 5.2	1197 ± 2

CN1CCCC1=O [N-methylpyrrolidone] + CC(=O)CC(C)C
[1], φ1 = 1
Settings	mass density [kg/m3]	speed of sound [m/s]
–	1023.4 ± 5.3	1552 ± 2

O=C1CCCCC1 [cyclohexanone] + CN1CCCC1=O
Settings	excess molar volume [m3/mol]	mass density [kg/m3]	speed of sound [m/s]
[1], φ2 = 0	–	937.58 ± 5.2	1386 ± 2
[1], φ2 = 0.1156	–	947.92 ± 5.2	1392 ± 2
[1], φ2 = 0.2076	–	954.74 ± 5.2	1402 ± 2
[1], φ2 = 0.3053	–	962.9 ± 5.2	1415 ± 2
[1], φ2 = 0.4073	–	971.45 ± 5.2	1426 ± 2
[1], φ2 = 0.4984	–	979.17 ± 5.2	1438 ± 2
[1], φ2 = 0.5729	–	985.58 ± 5.2	1454 ± 2
[1], φ2 = 0.7078	–	997.22 ± 5.2	1480 ± 2
[1], φ2 = 0.7856	–	1004.04 ± 5.3	1496 ± 2
[1], φ2 = 0.9104	–	1015.17 ± 5.3	1522 ± 2
[2], x2 = 0.0657	2.7e-08 ± 6e-09	–	–
[2], x2 = 0.1238	4.6e-08 ± 6e-09	–	–
[2], x2 = 0.2207	7.1e-08 ± 6e-09	–	–
[2], x2 = 0.3217	9e-08 ± 6e-09	–	–
[2], x2 = 0.4262	1.13e-07 ± 6e-09	–	–
[2], x2 = 0.5178	1.21e-07 ± 6e-09	–	–
[2], x2 = 0.5918	1.18e-07 ± 6e-09	–	–
[2], x2 = 0.7236	1.09e-07 ± 6e-09	–	–
[2], x2 = 0.7984	9.4e-08 ± 6e-09	–	–
[2], x2 = 0.9166	5.2e-08 ± 6e-09	–	–
[2], x2 = 0.9604	3.2e-08 ± 6e-09	–	–

CCCC(C)=O [pentan-2-one] + CN1CCCC1=O
Settings	excess molar volume [m3/mol]	mass density [kg/m3]	speed of sound [m/s]
[1], φ2 = 0	–	796.54 ± 5.2	1202 ± 2
[1], φ2 = 0.1165	–	824.33 ± 5.2	1231 ± 2
[1], φ2 = 0.193	–	842.58 ± 5.2	1254 ± 2
[1], φ2 = 0.3417	–	877.77 ± 5.2	1308 ± 2
[1], φ2 = 0.4382	–	900.32 ± 5.2	1345 ± 2
[1], φ2 = 0.493	–	913.03 ± 5.2	1367 ± 2
[1], φ2 = 0.6094	–	939.74 ± 5.2	1403 ± 2
[1], φ2 = 0.7189	–	964.15 ± 5.2	1429 ± 2
[1], φ2 = 0.8475	–	991.98 ± 5.3	1467 ± 2
[1], φ2 = 0.9297	–	1009.18 ± 5.3	1498 ± 2
[2], x2 = 0.0776	-1.11e-07 ± 7e-09	–	–
[2], x2 = 0.1284	-1.74e-07 ± 7e-09	–	–
[2], x2 = 0.2108	-2.81e-07 ± 7e-09	–	–
[2], x2 = 0.2852	-3.59e-07 ± 7e-09	–	–
[2], x2 = 0.3669	-4.39e-07 ± 7e-09	–	–
[2], x2 = 0.4655	-4.98e-07 ± 7e-09	–	–
[2], x2 = 0.5205	-5.21e-07 ± 7e-09	–	–
[2], x2 = 0.5851	-5.28e-07 ± 7e-09	–	–
[2], x2 = 0.6353	-5.29e-07 ± 7e-09	–	–
[2], x2 = 0.7406	-4.68e-07 ± 7e-09	–	–
[2], x2 = 0.8612	-3.15e-07 ± 7e-09	–	–
[2], x2 = 0.9366	-1.67e-07 ± 7e-09	–	–
[2], x2 = 0.9769	-7.6e-08 ± 7e-09	–	–
